The results in this text go back to patent US20240316047A1, “INHIBITORS OF RNA HELICASE DHX9 AND USES THEREOF” (ACCENT THERAPEUTICS, INC., priority 2022, published 2024).

The target in the experiment is Human recombinant DHX9 protein (Homo sapiens (Human), UniProt Q08211). As to the kind of experiment: DHX9 ATPase assay (ADP-Glo). Type of experiment: biochemical. The following applies: for IC50: read-out: DHX9 Biochemical Inflection Point. (In general: ADP-Glo first removes unused ATP, then detects ADP through luciferase.)
Human recombinant DHX9 protein, sequence (Q08211 whole entry): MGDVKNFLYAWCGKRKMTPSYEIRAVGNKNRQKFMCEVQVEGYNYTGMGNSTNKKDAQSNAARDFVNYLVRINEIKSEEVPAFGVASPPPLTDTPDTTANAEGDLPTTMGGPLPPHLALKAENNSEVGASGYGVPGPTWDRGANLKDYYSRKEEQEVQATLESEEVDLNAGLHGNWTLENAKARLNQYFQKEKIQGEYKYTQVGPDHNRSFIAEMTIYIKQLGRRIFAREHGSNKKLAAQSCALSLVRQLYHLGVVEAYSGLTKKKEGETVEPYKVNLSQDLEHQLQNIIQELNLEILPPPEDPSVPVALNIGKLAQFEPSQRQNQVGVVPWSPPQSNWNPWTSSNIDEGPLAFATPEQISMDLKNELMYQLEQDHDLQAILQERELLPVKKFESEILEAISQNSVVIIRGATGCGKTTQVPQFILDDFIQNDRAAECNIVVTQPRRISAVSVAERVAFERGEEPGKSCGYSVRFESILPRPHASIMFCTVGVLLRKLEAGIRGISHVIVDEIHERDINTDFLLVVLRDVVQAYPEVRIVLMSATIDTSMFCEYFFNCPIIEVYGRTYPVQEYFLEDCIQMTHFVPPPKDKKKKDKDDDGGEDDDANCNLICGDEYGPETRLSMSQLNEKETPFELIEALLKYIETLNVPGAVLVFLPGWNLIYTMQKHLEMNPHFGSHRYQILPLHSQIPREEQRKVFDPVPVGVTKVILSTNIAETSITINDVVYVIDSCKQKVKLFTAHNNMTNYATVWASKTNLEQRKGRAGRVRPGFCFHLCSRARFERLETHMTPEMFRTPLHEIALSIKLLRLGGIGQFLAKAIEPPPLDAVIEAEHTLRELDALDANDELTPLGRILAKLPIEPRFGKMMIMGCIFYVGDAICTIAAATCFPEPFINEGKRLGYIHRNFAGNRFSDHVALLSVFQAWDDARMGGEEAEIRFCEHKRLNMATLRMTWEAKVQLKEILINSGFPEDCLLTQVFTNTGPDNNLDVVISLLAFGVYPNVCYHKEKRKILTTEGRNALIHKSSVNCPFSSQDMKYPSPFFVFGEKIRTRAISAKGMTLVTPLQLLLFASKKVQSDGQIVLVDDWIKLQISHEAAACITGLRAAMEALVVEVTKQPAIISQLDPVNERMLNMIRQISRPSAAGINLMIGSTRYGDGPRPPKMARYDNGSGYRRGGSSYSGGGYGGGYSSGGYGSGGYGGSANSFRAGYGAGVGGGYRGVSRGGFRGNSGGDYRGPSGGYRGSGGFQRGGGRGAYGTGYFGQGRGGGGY

Regarding `CCS(=O)(=O)Nc1cc(Cl)cc(NC(=O)c2cc(-c3ncccn3)n(C)c2)c1` [Example 173, N-(3-chloro-5-(ethylsulfonamido)phenyl)-1-methyl-5-(pyrimidin-2-yl)-1H-pyrrole-3-carboxamide], the “DHX9 Biochemical Max Inhibition” value is given as 61.3% and the IC50 was determined as 0.0086 µM.

`Cn1cc(C(=O)Nc2cc(Cl)cc(NS(C)(=O)=O)c2)cc1-c1ncccc1OCc1cncc(F)c1` [Example 174, N-(3-chloro-5-(methylsulfonamido)phenyl)-5-(3-((5-fluoropyridin-3-yl)methoxy)pyridin-2-yl)-1-methyl-1H-pyrrole-3-carboxamide]: the “DHX9 Biochemical Max Inhibition” value stood at 75.8% and the IC50 came out at 0.0018 µM.

Regarding `CS(=O)(=O)Nc1cc(Cl)cc(NC(=O)c2cc(-c3ccccn3)c(C3CC3)s2)c1` [Example 177, N-(3-chloro-5-(methylsulfonamido)phenyl)-5-cyclopropyl-4-(pyridin-2-yl)thiophene-2-carboxamide], the “DHX9 Biochemical Max Inhibition” value is given as 77% and the IC50 was determined as 0.0216 µM.

Regarding `CS(=O)(=O)Nc1cc(Cl)cc(NC(=O)c2cnn(-c3ncccc3OCc3cccc(O)c3)c2)c1` [Example 179], the “DHX9 Biochemical Max Inhibition” value came to 72.3% and the IC50 was determined as 0.0272 µM.

For `CS(=O)(=O)Nc1cc(Cl)cc(NC(=O)c2cnn(-c3ccc(N4CCOCC4=O)cn3)c2)c1` [Example 180], the “DHX9 Biochemical Max Inhibition” value is given as 67.4% and the IC50 amounted to 0.0202 µM.

On to `CS(=O)(=O)Nc1cc(Cl)cc(NC(=O)c2cc(CN)n(-c3ccccn3)c2)c1` [Example 181], for which the “DHX9 Biochemical Max Inhibition” value is 57.4% and the IC50 amounted to 0.0096 µM.

Consider `CS(=O)(=O)Nc1cc(Cl)cc(NC(=O)c2cnn(C3CCOC3)c2)c1` (stereo not shown) [Example 182], for which the “DHX9 Biochemical Max Inhibition” value is on record as 73.4% and the IC50 came out at 0.181 µM.

With `CN1CCN(c2cnc(-n3cc(C(=O)Nc4cc(Cl)cc(NS(C)(=O)=O)c4)cn3)nc2)CC1=O` [Example 183], the “DHX9 Biochemical Max Inhibition” value is on record as 67.1% and the IC50 was determined as 0.0201 µM.

As to `CN1CCN(c2cnc(-n3cc(C(=O)Nc4cc(Cl)cc(NS(C)(=O)=O)c4)cn3)cn2)CC1=O` [Example 184], the “DHX9 Biochemical Max Inhibition” value is reported as 66.3% and the IC50 came out at 0.0194 µM.

`CS(=O)(=O)Nc1cc(Cl)cc(NC(=O)c2cc(-c3ncccc3OCc3cccnc3)n(CC(F)(F)F)c2)c1` [Example 185]: the “DHX9 Biochemical Max Inhibition” value was determined as 80.5% and the IC50 came out at 0.0047 µM.

For `CS(=O)(=O)Nc1cc(Cl)cc(NC(=O)c2cnn(-c3ncccc3OCc3cncc(F)c3)c2)c1` [Example 186], the “DHX9 Biochemical Max Inhibition” value worked out at 87.9% and the IC50 stood at 0.0039 µM.

Regarding `CS(=O)(=O)Nc1cc(Cl)cc(NC(=O)c2cnn(-c3ncccc3OCc3cncnc3)c2)c1` [Example 188], the “DHX9 Biochemical Max Inhibition” value stood at 66.2% and the IC50 turned out to be 0.0188 µM.

As to `CS(=O)(=O)Nc1cc(Cl)cc(NC(=O)c2cnn(-c3ncccc3OCc3ccccc3F)c2)c1` [Example 189], the “DHX9 Biochemical Max Inhibition” value is 72.1% and the IC50 worked out at 0.0327 µM.

As to `CS(=O)(=O)Nc1cc(Cl)cc(NC(=O)c2cnn(-c3ccc(C4CCOCC4)cn3)c2)c1` [Example 190], the “DHX9 Biochemical Max Inhibition” value was determined as 68.8% and the IC50 came out at 0.0191 µM.

For `CS(=O)(=O)Nc1cc(Cl)cc(NC(=O)c2cnn(-c3ccc(N4CC5CCC(C4)O5)cn3)c2)c1` [Example 191], the “DHX9 Biochemical Max Inhibition” value is on record as 67.6% and the IC50 amounted to 0.0042 µM.

With `CS(=O)(=O)Nc1cc(Cl)cc(NC(=O)c2cnn(-c3ccc(N4CCn5ccnc5C4)cn3)c2)c1` [Example 192], the “DHX9 Biochemical Max Inhibition” value came to 72.6% and the IC50 worked out at 0.0165 µM.

Consider `CN1CCN(c2cnc(-n3cc(C(=O)Nc4cc(Cl)cc(NS(C)(=O)=O)c4)cn3)c(OCc3cccnc3)c2)CC1=O` [Example 193], for which the “DHX9 Biochemical Max Inhibition” value was 65.8% and the IC50 stood at 0.0111 µM.
